# Assay results reported in US7815905B2, “Methods of increasing insulin sensitivity or decreasing insulin secretion by administering corticotropin releasing factor receptor-2 inhibitors” (Research Development Foundation, priority 2006, dated 2010).
# Entries after “also recorded” stand apart in the source; their conditions may differ. Ends that are not written are not given here.
# Columns and labels:
# [1] = tested on: insulin signaling in C2C12 myotubes; assay: Phosphorylation studies of insulin signaling in C2C12 myotubes; format: cell-based; settings: pretreatment with the PKA inhibitor
# Experimental: FIG. 3a-l: Urocortin 2 effects on muscle glucose uptake are mediated by inhibition of insulin signaling. (a-f). Ucn 2 inhibits the insulin-induced Akt and ERK1/2 phosphorylation but not the insulin receptor phosphorylation. Differentiated C2C12 myotubes were pre-incubated with or without Ucn 2 peptide (0.1, 1 or 10 nM) for 1 hour prior to insulin treatment (10 nM, 5 min). Cell lystates were resolved using 4-12% gradient polyacrylamide gels. Gels were electrophorectically transferred to membranes and probed with antibodies specific for the phospho proteins pAkt (Ser 473), pERK1/2 or pIR (Tyr1146). Stimulation of Akt, ERK or insulin receptor (IR) activation was calculated by fold activation of the phosphorylated form normalized to total and compared with the untreated controls (a, d and f, graphs). […] (g-j) Ucn 2 treatment increases the phosphorylation of serine residue 307 and not the tyrosin phosphorylation of IRS-1. Myotube cells, treated with or without PKA inhibitor (H-89), were incubated with insulin and different concentrations of Ucn 2. IRS-1 immunoprecipitated proteins were electrophoresed as before and the immunoblots were probed for phosphorylated tyrosin (g), phosphorylated serine 307 IRS-1 (i) and total IRS-1 (g, i). […] (k) The effect of Ucn 2 on [^3H]2-deoxy-D-glucose uptake in differentiated C2C12 myotubes. Cells were incubated for 2 hours in low glucose, serum free medium and treated with Ucn 2 (0.1, 1 or 10 nM) or without (control) for 30 min prior to insulin administration (10 nM). Glucose uptake was measured 5 min following exposure to [^3H]2-deoxy-D-glucose. Non-specific uptake was measured by incubating muscle tissue with cytochalasin B, which binds to the glucose uptake transporter (GLUT) and inhibits glucose transport into the cell. Specific uptake was calculated by subtracting non specific from total glucose. (l) Schematic representation of the putative cellular mechanisms mediating the effect of Ucn 2 and CRFR2 on the insulin signaling and glucose uptake in skeletal muscle cells. * indicates p<0.05 vs. no treatment. # indicates p<0.05 vs. insulin treatment (b, d, f) or p<0.05 vs. insulin treatment and Ucn 2 (i).
# Differentiated C2C12 myotubes were pre-incubated with or without Ucn 2 peptide (0.1, 1 or 10 nM) for 1 hour prior to insulin treatment (10 nM, 5 min). Cells were harvested immediately in 100 μl of sample treatment buffer [STB, 50 mM Tris (pH 6.8), 100 mM dithiothreitol, 2% (wt/vol) sodium dodecyl sulfate, 0.1% (wt/vol) bromphenol blue, and 10% (wt/vol) glycerol]. The samples were boiled for 5 min, proteins were electrophoresed on 4-12% sodium dodecyl sulfate-polyacrylamide gradient gel (Invitrogen Life Technologies), subsequently transferred onto nitrocellulose membranes, and probed with antibodies specific for phosphorylated Akt (Ser 473, Cell Signaling Technology, Inc., Beverly, Mass.), phosphorylated ERK1/2-p42, 44 (Santa Cruz Biotechnology, Inc., Santa Cruz, Calif.), phosphorylated insulin receptor (Tyr 1146, Cell Signaling Technology, Inc.), or phosphorylated IRS1 (Ser 307, Upstate Cell Signaling Solutions, Lake placid, NY). The membranes were washed with phosphate buffer saline containing 0.05% (vol/vol) Tween 20 and incubated with horseradish peroxidase-conjugated anti mouse or rabbit IgG raised in sheep (Amersham Biotech Pharmacia). Immunoreactive proteins were visualized using Super Signal West Pico Chemiluminescent substrate (Pierce, Rockford, Ill.). The relative protein levels were determined using densitometry (Image quant 1.2) by probing the membranes with antibodies directed against total proteins.
# MIN6 cells = assay: Ucn 3 secretion from MIN6 cells (Ucn 3 RIA); format: cell-based, mouse; settings: for Ucn 3 secretion in the presence of 2.8 mM glucose / Ucn 3 release in the presence of 10 mM glucose: 2 h at 37° C.
# Text: FIG. 8a-e: Elevation of pancreatic Ucn 3 expression in diabetic rodent models and stimulation of Ucn 3 release from β cells by glucose. (a) Representative agarose gel electrophoresis showing Ucn 3 and S-16 (control) PCR products. (b) Summary of Ucn 3 expression in ob/ob obese mice and the wildtype (WT) littermates. *: p<0.05 vs WT. (c) Ucn 3 mRNA levels in the pancreas of high fat fed rats (HF) and chow fed controls (Ctrl). *: p<0.05 vs Ctrl. (d) Ucn 3 secretion from MIN6 cells in response to various glucose concentrations. (e) Ucn 3 release from MIN6 cells, in response to glucose and/or insulin secretagogues.
# Ucn 3 secretion from P cells was studied using a mouse clonal P cell line, MIN6, as a model. For these studies MIN6 cells (Miyazaki et al., 1990) were cultured in DMEM supplemented with 10% fetal bovine serum (FBS), and 114 μm β-mercaptoethanol. To assess Ucn 3 secretion, the cells were seeded in 6-well plates and allowed to recover for 48 hrs. The cells were then washed twice with HEPES-balanced Krebs-Ringer bicarbonate buffer (HKRB) containing 5 mM glucose and 0.2% BSA and were incubated in HKRB with various testing reagents for 2 h at 37° C. The incubation buffer was collected and vacuum-dried for Ucn 3 RIA. Exendin-4 and diazoxide and carbachol were purchased from Phoenix Pharmaceuticals (Belmont, Calif.), and Sigma (St. Louis, Mo.), respectively. […] The effect of glucose on Ucn 3 secretion plateaued at 16.8 mM.
# isolated rat islets = assay: Insulin secretion from isolated rat islets; format: cell-based; settings: 10 nM in the presence of 8.4 mM glucose
# Experimental: FIG. 4a-b: The effect of CRFR2 antagonist on insulin secretion in isolated rat islets. (a) The effect of astressin2B (Ast2-B) on insulin secretion in response to glucose in isolated rat islets. […] The asterisk indicates a statistically significant difference between results from the control versus Ast2-B. (b) Isolated rat isles were pre-treated with anti-Ucn 3 IgG or control IgG followed by addition of indicated concentration of glucose. Y-axis indicates insulin secretion from the treated islets. The double asterisks indicate a statistically significant difference between the indicated treatments. […]
# To assess the effect of CRFR2 antagonism on islet cell function secretion of insulin from isolated rat islets was studied. […] Thus, activation of CRFR2 by endogenous ligands is involved in insulin secretion induced by high levels of glucose.
# In order to determine the role of Ucn 3 in glucose induced insulin secretion, isolated rat islets were pretreated with an anti-Ucn 3 IgG prior to glucose treatment.
# [2] = tested on: C57/B6 mice fed with high fat diet; assay: Ucn 3 treatment of high fat diet fed mice; format: in vivo, mouse; settings: high fat diet 16 weeks; 30 μg/kg i.p. for 6 days; vs vehicle
# Experimental: FIG. 6: The in vivo effect of Ucn 3 on insulin levels and blood glucose in a mouse model of type 2 diabetes. Wild-type mice were fed a high fat diet for 16 weeks to induce hyperglycemia. The mice were then injected for six days with vehicle alone or vehicle plus 30 μg/Kg of Ucn 3. Following treatment serum glucose (left panel) and serum insulin levels (right panel were determined.
# To directly assess the in vivo activity of Ucn 3 in this model system C57/B6 mice were fed with high fat diet (45% Kcal) for 16 weeks. The mice were then injected i.p. with either vehicle or mouse Ucn 3 (30 μg/kg) for 6 days. […] These studies confirm the role of Ucn 3 in mediating increased insulin response to high blood sugar.
compound,measurement,setting,value
O=S(=O)(NCCNC/C=C/c1ccc(Br)cc1)c1cccc2cnccc12 [H-89],phosphorylation of IRS-1 on S307 by Ucn 2,[1],completely blocked
C[N+](C)(C)CCOC(N)=O [carbachol],Ucn 3 secretion in the presence of 2.8 mM glucose,MIN6 cells,minimal or moderate
same,Ucn 3 release in the presence of 10 mM glucose,MIN6 cells,significantly stimulated
CC1=NS(=O)(=O)c2cc(Cl)ccc2N1 [diazoxide],glucose-induced Ucn 3 secretion,"MIN6 cells; pretreatment, 100 μM",effectively blocked
Exendin-4: a long acting GLP-1 analogue,insulin release from isolated islets,isolated rat islets,significantly stimulated; also recorded: stimulated insulin release
same,Ucn 3 secretion in the presence of 2.8 mM glucose,MIN6 cells,minimal or moderate
same,Ucn 3 release in the presence of 10 mM glucose,MIN6 cells,significantly stimulated
"Ucn 3: Urocortin 3, CRF family member acting as CRFR2 agonist; mouse Ucn 3 (SEQ ID NO:3) (FTLSLDVPTNIMNILFNIDKAKNLRAKAAANAQLMAQI; ends and bridges not checked; listed as Mus musculus)",glucose levels,[2],significantly lower glucose levels
same,insulin levels,[2],"higher insulin levels compared to the control, though the difference was not statistically significant"
